Our source for the normalised viability values is the supplement of paper PMC4862054.

Holding throughout (test): normalised viability (% of control), CellTiter-Blue; higher = more viable cells (100 = DMSO, 0 = benzethonium chloride kill control)
Common to all, as to details: incubation time: 72 h
For orientation: The colour change of resazurin is a common sign of viable cells or microbes.

One test has as its system BT-474. As for the experimental part: (§1)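 DSRT, CellTiter-Blue viability, 72 h incubation. Signal is normalised to DMSO and benzethonium chloride controls. Value is the normalised response at dose 1.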
The subject of a further test is BT-549. How it is done:
as §1

The subject of a further test is CAL-120. As for the experimental part:
as §1

In the next test the test system is CAL-148. As for the experimental part:
as §1

In another test the test system is CAL-51. As for the experimental part:
as §1

In a further test the test system is CAL-85-1. How it is done:
as §1

The next test has as its system DU-4475. As for the experimental part:
as §1

The next test has as its system HCC1143. How it is done: as §1
In a further test the test system is HCC1599. As for the experimental part:
as §1

The test system of another test is HCC1937. As for the experimental part:
as §1

A further test deals with HDQ-P1. As for the experimental part:
as §1

The next test has as its system Hs578T. How it is done:
as §1

The next test concerns MDA-MB-231. As for the experimental part:
as §1

In another test the test system is MDA-MB-436. As for the experimental part:
as §1

The next test concerns MDA-MB-453. As for the experimental part:
as §1

The subject of a further test is MDA-MB-468. As for the experimental part: as §1
Another test deals with MFM-223. As for the experimental part: as §1
The test system of a further test is SK-BR-3. How it is done:
as §1

Regarding `O=P(O)(NCCCl)NCCCl` [Ifosfamide mustard] (1 nM), the normalised viability in the test on BT-474 turned out to be 113%; in the test on BT-549, 102%; with CAL-120, 82.2%; with CAL-148, 111%; in the test with CAL-51, 108%; in the test on CAL-85-1, 85.5%. Further, the normalised viability in the test with DU-4475 was found to be 106%; with HCC1143, 97.4%; in the test with HCC1599 it was 109%; with HCC1937, 92.3%; in the test on HDQ-P1, 88.6%; in the test on Hs578T it was 116%. Also, the normalised viability in the test with MDA-MB-231 was 101%; in the test on MDA-MB-436, 110%; in the test on MDA-MB-453 it was 109%; with MDA-MB-468, 101%; in the test with MFM-223, 94.9%; in the test on SK-BR-3, 91.8%.

In the case of `CCCC(CCC)C(=O)O` [Valproic acid] (1 nM), the normalised viability is 99% in the test with BT-474; 98.6% in the test with BT-549; 105% in the test with CAL-120; 103% with CAL-148; 99.8% in the test with CAL-51; 95.3% in the test with CAL-85-1. Besides, the normalised viability with DU-4475 worked out at 109%; in the test with HCC1143, 99.1%; in the test with HCC1599 it was 83.6%; in the test on HCC1937 it was 115%; in the test with HDQ-P1, 119%; with Hs578T, 130%. The normalised viability in the test on MDA-MB-231 was found to be 97.7%; in the test on MDA-MB-436, 89.9%; with MDA-MB-453, 108%; with MDA-MB-468, 102%; in the test on MFM-223 it was 104%; in the test on SK-BR-3 it was 103%.
